Test results from ChEMBL document CHEMBL3124756, “Hepatitis C virus NS5A replication complex inhibitors. Part 6: Discovery of a novel and highly potent biarylimidazole chemotype with inhibitory activity toward genotypes 1a and 1b replicons” (J Med Chem, 2014).

How the values were obtained:
[1] = tested on: Salmonella typhimurium; experiment: Mutagenic activity in Salmonella typhimurium TA 100 at 1 to 1000 ug/well after 48 hrs by Ames test; assay type: toxicity, organism-based; details: salmonella enterica subsp. enterica serovar typhimurium
[2] = tested on: Salmonella typhimurium; experiment: Mutagenic activity in Salmonella typhimurium TA 100 at 1 to 1000 ug/well after 48 hrs by Ames test in presence of rat liver S9 fraction; assay type: toxicity, organism-based; details: salmonella enterica subsp. enterica serovar typhimurium, s9, 48 h
[3] = tested on: Hepatitis C virus; experiment: Antiviral activity against Hepatitis C virus genotype 1b infected in human HuH7 cells after 72 hrs by FRET assay; assay type: functional, organism-based, Hepacivirus hominis; details: Huh-7, 72 h
[4] = tested on: Bovine viral diarrhea virus 1; experiment: Antiviral activity against Bovine viral diarrhea virus infected in human HuH7 cells by luciferase reporter gene assay; assay type: functional, organism-based; details: Bovine viral diarrhea virus isolates and strains, Huh-7
[5] = Cytotoxicity against human HuH7 cells infected with HCV genotype 1b after 72 hrs by Alamar blue assay; assay type: cell-based, Huh-7
[6] = tested on: Hepatitis C virus; experiment: Antiviral activity against Hepatitis C virus genotype 1a infected in human HuH7 cells after 72 hrs by FRET assay; assay type: functional, organism-based, Hepacivirus hominis; details: subtype 1a, Huh-7, 72 h
[7] = Plasma concentration in rat at 5 mg/kg, po after 0.17 hrs; assay type: ADME, organism-based; design: dose 5 mg/kg, route oral
[8] = Permeability of the compound at pH 7.4 by PAMPA; assay type: physicochemical; details: read-out: permeability
[9] = Metabolic stability in rat microsomes assessed as compound remaining after 10 mins; assay type: ADME, microsome; details: liver microsomes, read-out: Stability
[10] = Metabolic stability in human liver microsomes assessed as compound remaining after 10 mins; assay type: ADME; details: read-out: Stability
[11] = tested on: Hepatitis C virus; experiment: Antiviral activity against Hepatitis C virus genotype 5a infected in human HuH7 cells by FRET assay; assay type: functional, organism-based, Hepacivirus hominis; details: Huh-7
[12] = tested on: Hepatitis C virus; experiment: Antiviral activity against Hepatitis C virus genotype 4a infected in human HuH7 cells by FRET assay; assay type: functional, organism-based, Hepacivirus hominis; details: Huh-7
[13] = tested on: Hepatitis C virus; experiment: Antiviral activity against Hepatitis C virus genotype 3a YH infected in human HuH7 cells by FRET assay; assay type: functional, organism-based, Hepacivirus hominis; details: subtype 3a YH, Huh-7
[14] = tested on: Hepatitis C virus; experiment: Antiviral activity against Hepatitis C virus genotype 3a infected in human HuH7 cells by FRET assay; assay type: functional, organism-based, Hepacivirus hominis; details: Huh-7
[15] = tested on: Hepatitis C virus; experiment: Antiviral activity against Hepatitis C virus genotype 2a J6 infected in human HuH7 cells by FRET assay; assay type: functional, organism-based, Hepacivirus hominis; details: subtype 2a J6, Huh-7
[16] = Clearance in rat at 2 mg/kg, iv; assay type: ADME, organism-based; design: dose 2 mg/kg, route intravenous; details: in vivo
[17] = tested on: Hepatitis C virus; experiment: Antiviral activity against Hepatitis C virus genotype 1b expressing […] resistant-mutant infected in human HuH7 cells after 72 hrs by FRET assay; assay type: functional, organism-based, Hepacivirus hominis; details: Huh-7, 72 h
[18] = tested on: Hepatitis C virus; experiment: Antiviral activity against Hepatitis C virus genotype 1a infected in human HuH7 cells after 5 days by ELISA; assay type: functional, organism-based, Hepacivirus hominis; details: subtype 1a, Huh-7, 120 h

EC50 [3] [nM]	EC50 [4] [nM]	EC50 [6] [nM]	EC50 [18] [nM]	SMILES	CC50 at 72 h [5] [nM]	further results
429				O=C(Nc1ccc(-c2cnc(-c3ccc(NC(=O)[C@@H]4CCCN4C(=O)Cc4ccccc4)cc3)o2)cc1)[C@@H]1CCCN1C(=O)Cc1ccccc1		
5.6	> 10000	> 400		O=C(Nc1ccc(C#Cc2ccc(NC(=O)[C@@H]3CCCN3C(=O)Cc3ccccc3)cc2)cc1)[C@@H]1CCCN1C(=O)Cc1ccccc1	> 10000	
0.012	3440		0.049	COC(=O)N[C@@H](C(=O)N1CCC[C@H]1c1ncc(-c2ccc(-c3ccc(-c4cnc([C@@H]5CCCN5C(=O)[C@@H](c5ccccc5)N(C)C)[nH]4)cc3)cc2)[nH]1)c1ccccc1	> 9700	
0.004	523		14.9	COC(=O)N[C@@H](C(=O)N1CCC[C@H]1c1ncc(-c2ccc(-c3ccc(-c4cnc([C@@H]5CCCN5C(=O)Cc5ccccc5)[nH]4)cc3)cc2)[nH]1)c1ccccc1	> 10000	
0.011	110	203		COC(=O)N[C@@H](C(=O)N1CCC[C@H]1c1ncc(-c2ccc(-c3ccc(-c4cnc([C@@H]5CCCN5C(=O)OC(C)(C)C)[nH]4)cc3)cc2)[nH]1)c1ccccc1	> 10000	
< 4.6	> 10000	> 100		O=C(Cc1ccccc1)N1CCC[C@H]1c1nc2cc(C#Cc3ccc4nc([C@@H]5CCCN5C(=O)Cc5ccccc5)[nH]c4c3)ccc2[nH]1	> 10000	
0.075	3420		232	CN(C)[C@@H](C(=O)N1CCC[C@H]1c1nc2cc(C#Cc3ccc4[nH]c([C@@H]5CCCN5C(=O)[C@@H](c5ccccc5)N(C)C)nc4c3)ccc2[nH]1)c1ccccc1	6390	

The remaining lines, values behind:

SMILES	EC50 [3] [nM]	EC50 [4] [nM]	EC50 [6] [nM]	EC50 [18] [nM]	CC50 at 72 h [5] [nM]	further results
O=C(Nc1ccc(/C=C/c2ccc(NC(=O)[C@@H]3CCCN3C(=O)Cc3ccccc3)cc2)cc1)[C@@H]1CCCN1C(=O)Cc1ccccc1						Activity [1]: Non-toxic; Activity [2]: Non-toxic
Nc1ccc(/C=C/c2ccc(NC(=O)[C@@H]3CCCN3C(=O)Cc3ccccc3)cc2)cc1						Activity [2]: Toxic
CN(C)[C@@H](C(=O)N1CCC[C@H]1c1ncc(-c2ccc(-c3ccc(-c4cnc([C@@H]5CCCN5C(=O)[C@@H](c5ccccc5)N(C)C)[nH]4)cc3)cc2)[nH]1)c1ccccc1	0.042	2350		0.037	5860	concentration at 0.17 h [7]: 20 nM; Papp [8]: 0.7 ×10⁻⁶ cm/s; remaining at 10 min [9]: 100%; remaining at 10 min [10]: 100%; EC50 [11]: 0.032 nM; EC50 [12]: 0.013 nM; EC50 [13]: 3.8 nM; EC50 [14]: 0.015 nM; EC50 [15]: 0.032 nM; clearance [16]: 17.4 mL/min/kg; EC50 [17]: 233 nM
CN(C)[C@H](C(=O)N1CCC[C@H]1c1ncc(-c2ccc(-c3ccc(-c4cnc([C@@H]5CCCN5C(=O)[C@H](c5ccccc5)N(C)C)[nH]4)cc3)cc2)[nH]1)c1ccccc1	5.4	1270		704	3610	
CC(C)(C)OC(=O)N1CCC[C@H]1c1ncc(-c2ccc(-c3ccc(-c4cnc([C@@H]5CCCN5C(=O)OC(C)(C)C)[nH]4)cc3)cc2)[nH]1	102	2760	901		9630	
